In patent US5512550A, “Method for inhibiting angiogenesis with modified platelet factor-4 and cleaved platelet factor-4” (Eli Lilly and Company, priority 1995, dated 1996):
Positions of bridges follow the written chain, without caps; N, C: chain ends. Chains are numbered I, II in the order given. No end group written: not given here.

B1: CPF-4: Proteolytically cleaved, non-reduced PF-4: 16-residue chain (SEQ ID NO: 2) disulfide bonded to 54-residue chain (SEQ ID NO: 1) (protein)
chain 1: EAEEDGDLQCLCVKTT
chain 2: SQVRPRHITSLEVIKAGPHCPTAQLIATLKNGRKICLDLQAPLYKKIIKKLLES
modifications: disulfide I:10-II:20, I:12-II:36; not fully specified

Columns and labels:
[1] = system: primary retinal capillary endothelial cells or bovine heart endothelial cells; assay: Endothelial cell proliferation inhibition assay; assay type: cell-based; conditions: for IC50, inhibition of endothelial cell proliferation: endothelial cells with 20 ng/ml fibroblast growth factor, grown four days, cell count, average of 4 wells (FIG. 1); for IC50: same experiment, IC50 restated in nM; for potency of endothelial cell proliferation inhibition compared with PF-4: under identical conditions as PF-4
Protocol: Primary retinal capillary endothelial cell cultures were prepared in substantial accordance with the procedure described in Buzney et al., Retinal Vascular Endothelial Cells and Pericytes: Differential Growth Characteristics in vitro, Invest. Opthalmol. Visual Sci. 24: 470-483 (1983) and separated from contaminating cells as described in Voyta et al., Identification and Isolation of Endothelial Cells Based on their Increased Uptake of Acetylated-low density Lipoprotein, J. Cell Biol, 99: 2034-2040 (1981).
Alternatively, bovine heart endothelial cells were obtained (American Type Culture Collection; Rockville Md. 20852) for use in the assay. Irrespective of source, the endothelial cells were seeded into 24 well tissue culture plates at a cell density of 10,000 cells/well in Dulbecco's modified Eagle Medium (GIBCO; Grand Island, N.Y.) supplemented with 5% bovine serum albumin, 1% penicillin-streptomycin, 1% L-glutamine, and 20 ng/ml fibroblast growth factor. Immediately after seeding the cells, various amounts of PF-4 (Sigma Chemical Co.; St. Louis, Mo. 63178), MPF-4 , or CPF-4 (isolated as describe in the above examples) were added to individual growth wells. MPF-4 and CPF-4 were tested at final concentrations ranging from 0.001 to 1 μg/ml. For comparison, native PF-4 was tested over a range of 0.001 to 3 μg/ml, and supplemented medium alone served as the negative control. The endothelial cell cultures were allowed to grow for four days at 37° C., 5% CO2 in a humidified tissue culture incubator. The cultures were then harvested individually by trypsinization and counted using a Zm-Coulter Counter (Coulter Electronics. Inc.; Opa Locka Fla. 33054).
The results were plotted in FIG. 1, and each point on the graph represented the average of 4 data points; ie one growth well per data point.

[2] = Heparin binding (heparin affinity chromatography)
Source text: The eluted proteins are then contacted with a heparin affinity resin. The ordinarily skilled artisan will readily realize that this step is best achieved in a column chromatography mode. Heparin affinity columns are commercially available from some of the same vendors mentioned above. In this step, the molecules of interest, both MPF-4 or CPF-4, bind to the heparin column and are eluted using an increasing linear salt gradient. The preferred salt is NaCl, and the portion of the gradient that is preferably collected is the 0.1-2.0M portion. The more highly preferred portion of the gradient to collect is the 0.7-2.0M portion.
The C4-pool was further fractionated by heparin affinity chromatography on a Econo-pac™ 5 ml heparin-sepharose cartridge (Biorad, Richmond, Calif. 94804). The bound proteins were eluted by a linear gradient of 0 to 2.0M NaCl in phosphate buffer saline (PBS) at a flow rate of 2.0 ml/min. The proteins that eluted from the column were pooled into three fractions: (1) non-heparin binding (flow through), (2) low-affinity heparin binding (0 to 0.7M NACl), and (3) high-affinity heparin binding (0.7M to 2.0M NACl) fractions.

Molecule	IC50, inhibition of endothelial cell proliferation [1]	IC50 [1] [nM]	potency of endothelial cell proliferation inhibition compared with PF-4 [1]	heparin binding [2]
MPF-4: N-terminally processed form of human platelet factor-4, 54 C-terminal residues beginning with Ser-17, SEQ ID NO: 1 (SQVRPRHITSLEVIKAGPHCPTAQLIATLKNGRKICLDLQAPLYKKIIKKLLES)	0.03 to 0.05 µg/mL	~7	more potent inhibitors of endothelial cell proliferation	bind heparin
PF-4: Native platelet factor-4 (Sigma Chemical Co.), tested for comparison [reference compound]	0.8 to 1 µg/mL	~130		
B1	approximately 150 ng/ml	~20	more potent inhibitors of endothelial cell proliferation	bind heparin
